Read-outs that look alike come from different tables or passages of the source.
What was measured:
[1] = tested on: SK-BR-3 cells; assay: Growth inhibitory activity against HER2 expressing cell line SK-BR-3; type: cell-based; conditions: Homo sapiens, SK-BR-3, 72 h; 3 days, CellTiter-Glo 2.0
Outline: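 SK-BR-3 cells in McCoy's 5a with 10% FBS, pre-cultured 1 day, then exposed to compound (final DMSO 0.2%) for 3 days at 37° C, 5% CO2. Viability by CellTiter-Glo 2.0 luminescence; growth inhibition % = (C−T)/C×100 versus untreated wells.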

[2] = tested on: NCI-N87 cells; assay: Growth inhibitory activity against HER2 expressing cell line NCI-N87; type: cell-based; conditions: Homo sapiens, NCI-N87, 72 h; 3 days, CellTiter-Glo 2.0
[3] = Evaluation of brain penetration properties; type: in vivo, BALB/cA mice; conditions: mouse, 0.5 hours after oral 50 mg/kg/day, BALB/cA mice; for Kp at 0.5 h: read-out: Kp value (Compound concentration in brain/plasma)
[4] = molecular target: T1, HER2 (Homo sapiens, UniProt P04626); assay: Inhibitory effect (in vitro) on HER2 phosphorylation activity; type: biochemical; conditions: recombinant human HER2, ATP 5 μM, 25° C. 30 minutes
T1 construct: purchased Carna Biosciences, Inc
T1 sequence (P04626 23-1255): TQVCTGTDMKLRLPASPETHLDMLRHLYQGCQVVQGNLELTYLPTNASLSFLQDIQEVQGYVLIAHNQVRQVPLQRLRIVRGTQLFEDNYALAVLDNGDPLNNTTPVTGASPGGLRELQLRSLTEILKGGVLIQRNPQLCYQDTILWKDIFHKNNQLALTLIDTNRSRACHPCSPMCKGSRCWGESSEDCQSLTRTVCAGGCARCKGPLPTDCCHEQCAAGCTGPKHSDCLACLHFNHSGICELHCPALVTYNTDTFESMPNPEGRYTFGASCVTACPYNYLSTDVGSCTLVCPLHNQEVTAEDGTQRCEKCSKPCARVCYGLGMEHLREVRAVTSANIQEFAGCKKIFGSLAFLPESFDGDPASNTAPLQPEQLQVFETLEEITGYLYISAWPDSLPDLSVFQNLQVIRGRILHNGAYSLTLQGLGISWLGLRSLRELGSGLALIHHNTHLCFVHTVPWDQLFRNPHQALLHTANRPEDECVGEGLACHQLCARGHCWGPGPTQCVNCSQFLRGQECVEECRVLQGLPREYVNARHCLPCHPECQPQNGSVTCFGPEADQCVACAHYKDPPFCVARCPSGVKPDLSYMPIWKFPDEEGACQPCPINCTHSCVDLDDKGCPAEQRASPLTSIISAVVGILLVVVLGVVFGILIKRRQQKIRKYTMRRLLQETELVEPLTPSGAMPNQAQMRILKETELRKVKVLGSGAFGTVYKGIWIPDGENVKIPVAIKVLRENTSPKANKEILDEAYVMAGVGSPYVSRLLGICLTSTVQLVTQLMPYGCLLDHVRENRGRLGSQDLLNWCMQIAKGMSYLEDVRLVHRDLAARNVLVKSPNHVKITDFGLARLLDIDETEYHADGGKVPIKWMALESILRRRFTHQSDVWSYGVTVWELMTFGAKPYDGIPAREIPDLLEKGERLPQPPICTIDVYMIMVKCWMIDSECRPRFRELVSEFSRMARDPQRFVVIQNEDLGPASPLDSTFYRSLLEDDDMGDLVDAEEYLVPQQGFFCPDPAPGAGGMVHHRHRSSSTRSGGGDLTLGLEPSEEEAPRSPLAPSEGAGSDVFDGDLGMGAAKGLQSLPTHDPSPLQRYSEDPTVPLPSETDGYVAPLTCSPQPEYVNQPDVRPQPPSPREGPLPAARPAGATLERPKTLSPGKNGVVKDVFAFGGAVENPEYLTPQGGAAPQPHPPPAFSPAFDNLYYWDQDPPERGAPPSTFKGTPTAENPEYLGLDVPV
Outline: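 Purified recombinant human HER2 phosphorylating 5-FAM-labeled ProfilerPro Peptide 22 substrate, compounds serially diluted in DMSO. Reaction stopped with EDTA at 30 mM final; unphosphorylated and phosphorylated peptides separated and detected by microchannel capillary electrophoresis.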

[5] = Evaluation of oral absorbability; type: in vivo, BALB/cA mice; conditions: mouse; plasma, oral 50 mg/kg/day, BALB/cA mice
[6] = molecular target: HER2 exon 20 insertion mutant (HER2ex20insYVMA, A775_G776insYVMA) (Homo sapiens, UniProt P04626, DUP772-775); assay: Inhibitory action (in vitro) against HER2 exon 20 insertion mutant phosphorylation activity; type: biochemical; conditions: 30 min pre-incubation, ATP 200 μM, 25° C. 220 minutes
HER2 exon 20 insertion mutant (HER2ex20insYVMA, A775_G776insYVMA), sequence (P04626 with tags, fused parts or gaps DUP772-775): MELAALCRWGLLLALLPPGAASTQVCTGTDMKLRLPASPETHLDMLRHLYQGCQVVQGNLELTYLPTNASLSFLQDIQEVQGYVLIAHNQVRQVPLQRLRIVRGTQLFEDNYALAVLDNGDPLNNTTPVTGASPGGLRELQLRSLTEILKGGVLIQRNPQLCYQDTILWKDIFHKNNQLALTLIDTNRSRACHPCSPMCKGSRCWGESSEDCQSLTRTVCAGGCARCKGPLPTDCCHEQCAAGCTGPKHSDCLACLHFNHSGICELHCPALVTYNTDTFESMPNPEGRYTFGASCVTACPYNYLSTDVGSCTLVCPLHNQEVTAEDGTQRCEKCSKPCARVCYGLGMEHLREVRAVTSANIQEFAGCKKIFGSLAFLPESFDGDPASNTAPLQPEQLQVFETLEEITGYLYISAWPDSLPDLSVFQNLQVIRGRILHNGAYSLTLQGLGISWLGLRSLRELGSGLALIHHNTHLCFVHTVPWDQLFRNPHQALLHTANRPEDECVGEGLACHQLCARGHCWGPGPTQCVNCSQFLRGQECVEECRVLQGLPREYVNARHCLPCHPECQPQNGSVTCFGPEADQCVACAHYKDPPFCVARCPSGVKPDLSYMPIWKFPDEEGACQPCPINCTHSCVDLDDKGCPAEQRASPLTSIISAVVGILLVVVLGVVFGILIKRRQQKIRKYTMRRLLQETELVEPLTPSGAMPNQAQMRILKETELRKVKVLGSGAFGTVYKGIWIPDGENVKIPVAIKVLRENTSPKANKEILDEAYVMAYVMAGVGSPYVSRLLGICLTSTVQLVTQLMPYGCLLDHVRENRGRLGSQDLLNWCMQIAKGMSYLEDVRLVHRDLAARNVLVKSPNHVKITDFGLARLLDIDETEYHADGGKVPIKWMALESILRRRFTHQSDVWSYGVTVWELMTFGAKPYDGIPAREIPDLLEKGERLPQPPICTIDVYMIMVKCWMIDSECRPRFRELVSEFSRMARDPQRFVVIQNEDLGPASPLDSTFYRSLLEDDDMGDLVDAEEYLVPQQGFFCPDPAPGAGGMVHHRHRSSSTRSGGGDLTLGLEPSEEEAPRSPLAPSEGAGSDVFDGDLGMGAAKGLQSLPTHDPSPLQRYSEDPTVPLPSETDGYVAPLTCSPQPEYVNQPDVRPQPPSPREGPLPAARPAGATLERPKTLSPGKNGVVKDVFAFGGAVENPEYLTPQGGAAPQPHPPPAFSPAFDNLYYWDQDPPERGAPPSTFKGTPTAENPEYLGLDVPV
Outline: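 Purified recombinant human HER2 A775_G776insYVMA pre-incubated with compound (5% DMSO) 30 min at 25 °C in Tris pH 7.5 buffer; reaction with 1 μM ProfilerPro Peptide 22, 200 μM ATP, 25 mM MnCl2, 20 mM MgCl2 for 220 min at 25 °C, stopped with EDTA. Phosphorylated and unphosphorylated peptide separated by microchannel capillary electrophoresis.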

[7] = brain, read-out: Compound concentration in brain
[8] = plasma, read-out: Compound concentration in plasma

## C=CC(=O)N1C[C@H](n2c(C#CC(C)(C)OC)c(C(=O)N[C@H](C)c3ccccc3)c3c(N)ncnc32)C[C@@H]1C [Example 13, 7-((3R,5S)-1-acryloyl-5-methylpyrrolidin-3-yl)-4-amino-6-(3-methoxy-3-methylbut-1-yn-1-yl)-N—((R)-1-phenylethyl)-7H-pyrrolo[2,3-d]pyrimidine-5-carboxamide]
[1]
  IC50: 14 nM
[2]
  IC50: 11.7 nM
[3]; [7]
  concentration at 0.5 h: 2.8 µM
[3]; brain
  Kp at 0.5 h: 0.22
[3]; [8]
  concentration at 0.5 h: 13 µM
[4]
  IC50: 5.2 nM
[5]
  AUC(0-t): 18 µM·h
[6]
  IC50: 0.44 nM

## C=CC(=O)N1C[C@H](n2c(C#CC3CC3)c(C(=O)N[C@H](C)c3ccccc3)c3c(N)ncnc32)C[C@@H]1C [Example 11, 7-((3R,5S)-1-acryloyl-5-methylpyrrolidin-3-yl)-4-amino-6-(cyclopropylethynyl)-N—((R)-1-phenylethyl)-7H-pyrrolo[2,3-d]pyrimidine-5-carboxamide]
[1]
  IC50: 6.6 nM
[2]
  IC50: 9.9 nM
[3]; [7]
  concentration at 0.5 h: 2.7 µM
[3]; brain
  Kp at 0.5 h: 0.23
[3]; [8]
  concentration at 0.5 h: 12 µM
[4]
  IC50: 3.2 nM
[5]
  AUC(0-t): 31 µM·h
[6]
  IC50: < 0.3 nM

## C=CC(=O)N1C[C@H](n2c(C#CCC)c(C(=O)N[C@H](C)c3ccccc3)c3c(N)ncnc32)C[C@@H]1C [Example 14, 7-((3R,5S)-1-acryloyl-5-methylpyrrolidin-3-yl)-4-amino-6-(but-1-yn-1-yl)-N—((R)-1-phenylethyl)-7H-pyrrolo[2,3-d]pyrimidine-5-carboxamide]
[1]
  IC50: 8.1 nM
[2]
  IC50: 9.1 nM
[3]; [7]
  concentration at 0.5 h: 2.1 µM
[3]; brain
  Kp at 0.5 h: 0.21
[3]; [8]
  concentration at 0.5 h: 9.9 µM
[4]
  IC50: 2.2 nM
[5]
  AUC(0-t): 27 µM·h
[6]
  IC50: < 0.3 nM

## C=CC(=O)N1C[C@H](n2c(C#CC)c(C(=O)NC(C)(C)c3ccccc3)c3c(N)ncnc32)C[C@@H]1C [Example 3, 7-((3R,5S)-1-acryloyl-5-methylpyrrolidin-3-yl)-4-amino-N-(2-phenylpropan-2-yl)-6-(prop-1-yn-1-yl)-7H-pyrrolo[2,3-d]pyrimidine-5-carboxamide]
[1]
  IC50: 4.5 nM
[2]
  IC50: 4.7 nM
[3]; [7]
  concentration at 0.5 h: 1.4 µM
[3]; brain
  Kp at 0.5 h: 0.13
[3]; [8]
  concentration at 0.5 h: 11 µM
[4]
  IC50: 5.8 nM
[5]
  AUC(0-t): 24 µM·h
[6]
  IC50: < 0.3 nM

## C=CC(=O)N1C[C@H](n2c(C#CC3CC3)c(C(=O)N[C@H](C)c3ccccc3)c3c(N)ncnc32)C[C@@H]1COC [Example 18, 7-((3R,5R)-1-acryloyl-5-(methoxymethyl)pyrrolidin-3-yl)-4-amino-6-(cyclopropylethynyl)-N—((R)-1-phenylethyl)-7H-pyrrolo[2,3-d]pyrimidine-5-carboxamide]
[1]
  IC50: 3.4 nM
[2]
  IC50: 2.6 nM
[3]; [7]
  concentration at 0.5 h: 1.6 µM
[3]; brain
  Kp at 0.5 h: 0.22
[3]; [8]
  concentration at 0.5 h: 7.7 µM
[4]
  IC50: 2.3 nM
[5]
  AUC(0-t): 15 µM·h
[6]
  IC50: < 0.3 nM

## C=CC(=O)N1C[C@H](n2c(C#CC3CC3)c(C(=O)N[C@H](C)c3ccccc3)c3c(N)ncnc32)C[C@@H]1CC [Example 17, 7-((3R,5S)-1-acryloyl-5-ethylpyrrolidin-3-yl)-4-amino-6-(cyclopropylethynyl)-N—((R)-1-phenylethyl)-7H-pyrrolo[2,3-d]pyrimidine-5-carboxamide]
[1]
  IC50: 4 nM
[2]
  IC50: 2.2 nM
[3]; [7]
  concentration at 0.5 h: 6.5 µM
[3]; brain
  Kp at 0.5 h: 0.39
[3]; [8]
  concentration at 0.5 h: 17 µM
[4]
  IC50: 2.9 nM
[5]
  AUC(0-t): 21 µM·h
[6]
  IC50: 0.54 nM

## C=CC(=O)N1C[C@H](n2c(C#CC)c(C(=O)N[C@@H](c3ccccc3)C(F)(F)F)c3c(N)ncnc32)C[C@@H]1C [Example 8, 7-((3R,5S)-1-acryloyl-5-methylpyrrolidin-3-yl)-4-amino-6-(prop-1-yn-1-yl)-N—((S)-2,2,2-trifluoro-1-phenylethyl)-7H-pyrrolo[2,3-d]pyrimidine-5-carboxamide]
[1]
  IC50: 14 nM
[2]
  IC50: 9.7 nM
[3]; [7]
  concentration at 0.5 h: 3.3 µM
[3]; brain
  Kp at 0.5 h: 0.33
[3]; [8]
  concentration at 0.5 h: 9.9 µM
[4]
  IC50: 10 nM
[5]
  AUC(0-t): 15 µM·h
[6]
  IC50: < 0.3 nM

Reference: US11078207B2, “Substituted pyrrolo[2,3-d]pyrimidines as HER2 inhibitors” (TAIHO PHARMACEUTICAL CO., LTD., priority 2019, dated 2021)
